According to the supplement of paper PMC11061612:

Key:
Test in all cases: combination Emax (second highest fraction inhibited in the dose matrix, 72 h); higher = more inhibition; extreme values may be limits of the assay
[1] = test system: CAL-33 (Oral Cavity Carcinoma)
How it was run: (§1)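 Cell lines grown in DMEM/F12 or RPMI with 10% FBS were plated in 1536-well plates and held 24 hours at 37°C, 5% CO2 before 72 hours of exposure to two-drug dose matrices, with DMSO typically at 0.2%. CellTiter-Glo 2.0 luminescence gave viability, which was converted to inhibition. Vehicle wells were set to 0 and blank wells to 1. Combination Emax is the second-highest inhibition in the matrix, and Bliss excess is the observed combination effect minus the expected EA + EB − EA·EB, where EA and EB are the single-agent effects.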

[2] = test system: NCI-H524 (Small Cell Lung Carcinoma)
How it was run: as §1

[3] = test system: OE21 (Esophageal Squamous Cell Carcinoma)
How it was run: as §1

[4] = test system: LNZTA3WT4 (Low Grade Glioma)
How it was run: as §1

[5] = test system: TGBC1TKB (Biliary Tract Carcinoma)
How it was run: as §1

[6] = test system: CAL-72 (Osteosarcoma)
How it was run: as §1

[7] = test system: BE2-M17 (Neuroblastoma)
How it was run: as §1

[8] = test system: SW1710 (Bladder Carcinoma)
How it was run: as §1

[9] = test system: SNU-449 (Hepatocellular Carcinoma)
How it was run: as §1

[10] = test system: SNU-16 (Gastric Carcinoma)
How it was run: as §1

[11] = test system: HH (T-Cell Non-Hodgkin's Lymphoma)
How it was run: as §1

[12] = test system: OV-56 (Ovarian Carcinoma)
How it was run: as §1

[13] = test system: HeLa (Cervical Carcinoma)
How it was run: as §1

[14] = test system: SW1573 (Lung Adenocarcinoma)
How it was run: as §1

[15] = test system: BFTC-909 (Kidney Carcinoma)
How it was run: as §1

[16] = test system: WSU-NHL (B-Cell Non-Hodgkin's Lymphoma)
How it was run: as §1

[17] = test system: EW-11 (Ewing's Sarcoma)
How it was run: as §1

[18] = test system: SAS (Oral Cavity Carcinoma)
How it was run: as §1

[19] = test system: ESS-1 (Other Solid Carcinomas)
How it was run: as §1

[20] = test system: Hs-746T (Gastric Carcinoma)
How it was run: as §1

SMILES | combination Emax [1] | combination Emax [2] | combination Emax [3] | combination Emax [4] | combination Emax [5] | combination Emax [6] | combination Emax [7] | combination Emax [8] | combination Emax [9] | combination Emax [10] | combination Emax [11] | combination Emax [12] | combination Emax [13] | combination Emax [14] | combination Emax [15] | combination Emax [16] | combination Emax [17] | combination Emax [18] | combination Emax [19] | combination Emax [20]
COc1cccc(OCCCN)c1-c1cc(Nc2cnc(C#N)cn2)n[nH]1 [Prexasertib] + C[C@@H]1COCCN1C2=NC(=NC(=C2)C3(CC3)[S@](=N)(=O)C)C4=C5C=CNC5=NC=C4 [AZD6738] (first compound max 1 µM, 7x7, partner max 10 µM) | 0.916 | 0.998 | 0.745 | 0.91 | 0.552 | 0.869 | 0.994 | 0.771 | 0.282 | 1 | 0.674 | 0.916 | 0.864 | 0.236 | 0.94 | 1 | 0.734 | 0.943 | 1 | 0.754
Cc1c2c(nn1C)CSCc1cc(n(C)n1)CSc1cc(c3ccccc3c1)OCCCc1c(C(=O)O)n(C)c3c-2c(Cl)ccc13 [AZD5991] + C[C@@H](Nc1cc(F)cc(F)c1)c1cc(C(=O)N(C)C)cc2c(=O)cc(N3CCOCC3)oc12 [AZD8186] (first compound max 1 µM, 7x7, partner max 3 µM) | 0.28 | 0.436 | 0.397 | 0.232 | 0.377 | 0.365 | 0.92 | 0.307 | 0.216 | 0.986 | 0.87 | 0.212 | 0.614 | 0.288 | 0.3 | 0.987 | 0.906 | 0.321 | 0.372 | 0.487
CC1(C)CCC(CN2CCN(c3ccc(C(=O)NS(=O)(=O)c4ccc(NCC5CCOCC5)c([N+](=O)[O-])c4)c(Oc4cnc5[nH]ccc5c4)c3)CC2)=C(c2ccc(Cl)cc2)C1 [Venetoclax] + CCN(CCO)CCCOc1ccc2c(Nc3cc(CC(=O)Nc4cccc(F)c4)[nH]n3)ncnc2c1 [AZD2811] (first compound max 1 µM, 7x7, partner max 1 µM) | 0.594 | 0.985 | 0.159 | 0.487 | 0.208 | 0.673 | 0.515 | 0.248 | 0.239 | 0.523 | 0.18 | 0.195 | 0.279 | 0.286 | 0.215 | 0.782 | 0.517 | 0.204 | 0.977 | 0.161
CN(CCO)CC[C@H](CSc1ccccc1)Nc1ccc(S(=O)(=O)NC(=O)c2ccc(N3CCC([C@@H](O)c4ccccc4-c4ccc(Cl)cc4)CC3)cc2)cc1S(=O)(=O)C(F)(F)F [AZD4320] + C1CN(CCC1(C(=O)N[C@@H](CCO)C2=CC=C(C=C2)Cl)N)C3=NC=NC4=C3C=CN4 [Capivasertib] (first compound max 1 µM, 7x7, partner max 3 µM) | 0.363 | 0.765 | 0.441 | 0.218 | 0.466 | 0.315 | 0.374 | 0.302 | 0.0999 | 0.27 | 0.417 | 0.0773 | 0.0628 | 0.296 | 0.346 | 1 | 0.837 | 0.132 | 0.579 | 0.46
COc1cccc(OCCCN)c1-c1cc(Nc2cnc(C#N)cn2)n[nH]1 [Prexasertib] + CN(C)CCCOc1ccc(-c2ccc3ncc4c(c3c2)n(C2CCOCC2)c(=O)n4C)cn1 [AZD0156] (first compound max 1 µM, 7x7, partner max 1 µM) | 0.807 | 0.97 | 0.726 | 0.885 | 0.361 | 0.847 | 0.983 | 0.794 | 0.326 | 1 | 0.703 | 0.895 | 0.859 | 0.201 | 0.936 | 1 | 0.756 | 0.926 | 1 | 0.78
C=CCn1c(=O)c2cnc(Nc3ccc(N4CCN(C)CC4)cc3)nc2n1-c1cccc(C(C)(C)O)n1 [AZD1775] + O=C(c1cc(Cc2n[nH]c(=O)c3ccccc23)ccc1F)N1CCN(C(=O)C2CC2)CC1 [Olaparib] (first compound max 1 µM, partner max 10 µM) | 0.721 | 0.789 | 0.498 | 0.806 | 0.258 | 0.756 | 0.462 | 0.383 | 0.22 | 0.931 | 0.443 | 0.261 | 0.694 | 0.317 | 0.595 | 1 | 0.599 | 0.577 | 1 | 0.591
